Assay results from patent publication US7045547B2, “Acyl-CoA dehydrogenase allenic inhibitors” (University of Delaware, priority 2002, dated 2006).
Like-named read-outs stand apart in the source and are kept apart here. Each block holds one molecule with its values, some of them ahead of it.

What was measured:
[1] = molecular target: T1, medium chain acyl-CoA dehydrogenase (Sus scrofa, UniProt P41367); assay: Spectral titration / inhibition of the dehydrogenase by allenic thioesters; type: biochemical, pig
T1 construct: medium-chain acyl-CoA dehydrogenase (MC-CoA DH) as purified from pig kidney; from tissue; host or cells: pig kidney
T1 sequence (P41367 26-421): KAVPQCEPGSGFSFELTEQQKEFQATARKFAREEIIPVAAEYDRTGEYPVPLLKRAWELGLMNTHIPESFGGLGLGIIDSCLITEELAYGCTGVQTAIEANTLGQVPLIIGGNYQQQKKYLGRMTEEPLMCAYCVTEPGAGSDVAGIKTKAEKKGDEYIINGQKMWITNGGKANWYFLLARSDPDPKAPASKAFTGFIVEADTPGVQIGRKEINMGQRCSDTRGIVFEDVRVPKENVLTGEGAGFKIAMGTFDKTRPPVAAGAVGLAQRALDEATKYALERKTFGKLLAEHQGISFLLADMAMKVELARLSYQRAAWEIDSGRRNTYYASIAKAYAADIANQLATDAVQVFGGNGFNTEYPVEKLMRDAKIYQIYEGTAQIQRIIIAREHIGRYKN
Text: See, Example 1. The (S)-enantiomer is rapidly isomerized to the trans-2,4-conjugated diene. […] These structural studies show a surprising, but relatively large, variation in the interaction between structurally similar inhibitors.
(§1) General Information: Medium chain acyl-CoA dehydrogenase was purified from pig kidney as described previously (33). Porcine liver esterase (EC 3.1.1.1), CoASH (lithium salt), D-pantethine, and 5,5′-dithio-bis(2-nitrobenzoic acid) were obtained from Sigma. E,E-2,4-octadienal and E,E-2,4-dodecadienal were from Alfa and K & K Laboratories respectively. […] Thorpe et al. in Biochemistry 1979, 18, 331–337. Unless otherwise stated, buffers were 50 mM potassium phosphate, pH 7.6, containing 0.3 mM EDTA, and experiments were conducted at 25° C. Assays of the medium chain dehydrogenase were as described previously, see C. Thorpe et al. in Anal. Biochem. 1990, 186, 280–284. Static and rapid-reaction spectrophotometry were performed as reported in C. Thorpe et al, in Biochemistry 1998, 37, 10469–10477.
The spectral changes were completed rapidly before measurement could be made. Intermediate spectra are omitted for clarity. […] In FIG. 1C, the enzyme (5.06 μM in 50 mM phosphate buffer, pH 7.6, 25° C.; curve 1) was titrated with 2.53, 5.06, 36.4, 66.8, 109.3 μM of S-(+)-decadienoyl-CoA (curves 2–6, respectively). Intermediate spectra are omitted for clarity. The absorbance values at 446 nm are shown in the inset.

[2] = molecular target: T2, medium-chain acyl-CoA dehydrogenase (MC-CoA DH) (Sus scrofa, UniProt P41367); assay: Kinetic stability of enzyme adducts (return of oxidized flavin absorbance at 446 nm); type: biochemical, pig; settings: for rate constant of enzyme adduct decomposition: 1.6 equivalents racemic 3,4-dienoyl-CoA (0.8 equivalent R-isomer), 9.5 μM enzyme, pH 7.6; for enzyme adduct stability relative to the corresponding full length CoA-thioester: times more stable than the CoA adduct
T2 construct: medium-chain acyl-CoA dehydrogenase (MC-CoA DH) as purified from pig kidney; from tissue; host or cells: pig kidney
T2 sequence (P41367 26-421): T1 sequence (P41367 26-421)
Text: The reduced flavin adduct decomposes to the 2,4-conjugated diene with the return of the oxidized flavin absorbance spectrum. This isomerization provides a measure of the kinetic stability of each of the enzyme adducts formed. The dehydrogenase enzyme used in the stability testing of the inventive compounds was medium-chain acyl-CoA dehydrogenase (MC-CoA DH) as purified from pig kidney.
as §1
A solution of acyl-CoA dehydrogenase (9.5 μM in 50 mM phosphate buffer, pH 7.6, 25° C.) is mixed with 1.6 equivalents of racemic 3,4-dienoyl-CoA derivatives (0.8 equivalent of R-isomer) containing 5, 6, 7, 8, 10, 12 and 15 carbon acyl chains. The return of oxidized flavin absorbance was monitored at 446 nm. A sub-stoichiometric amount (1.6 equivalents racemate: corresponding to 0.8 equivalent of the R-isomer) is used to avoid the lag phases encountered in the presence of excess inhibitor. The return of oxidized flavin absorbance is strongly chain length dependent.
Enzyme adduct stabilities with the medium-chain acyl-CoA dehydrogenase of R-(−)-3,4-decadienoyl-CoA, R-(−)-3,4-decadienoyl-pantetheine, and R-(−)-3,4-decadienoyl N-acetylcysteamine were compared. The dehydrogenase was incubated with 0.8 equivalents of the CoA, pantetheine and N-acetylcysteamine thioesters of R-(−)-3,4-decadienoic acid until maximal bleaching of the flavin chromophore was observed. The reappearance of the oxidized flavin chromophore was then followed at 25° C.

[3] = molecular target: T3, medium chain dehydrogenase (Sus scrofa, UniProt P41367); assay: Competition studies with the substrate octanoyl-CoA; type: biochemical, pig; set-up: medium-chain acyl-CoA dehydrogenase (MC-CoA DH) as purified from pig kidney; from tissue; host or cells: pig kidney; settings: 30 μM octanoyl-CoA, 3 nM dehydrogenase
T3 sequence (P41367 26-421): T1 sequence (P41367 26-421)
Procedure: as §1
In competition studies with the substrate octanoyl-CoA, at a concentration of 30 μM, both the CoA and pantetheine analogs of the compounds of the invention are shown to be relatively strong reversible inhibitors of medium chain dehydrogenase. The assay studies included a dehydrogenase concentration of 3 nM. Compared to a control without inhibitor, 4.4 nM of the 3,4-decadienoyl-CoA analog decreased the rate to 50% within 1 minute.

[4] = molecular target: T1, medium chain acyl-CoA dehydrogenase; assay: Enzyme adduct formation: bleaching of the flavin chromophore at 446 nm (stopped-flow / conventional spectrophotometry); type: biochemical, pig; settings: for rate constant of bleaching of the flavin chromophore at 446 nm: at 50 μM; for rate constant of bleaching of the flavin chromophore at 446 nm / limiting rate of flavin bleaching: 2° C.; for long wavelength band: compared with the CoA compound, pantetheine at 50 μM
Procedure: as §1
(§2) Bleaching of the flavin chromophore, followed at 446 nm, is relatively rapid for the pantetheine compound, but slow enough for a conventional spectrophotometer with the N-acetylcysteamine compound. At 50 μM, the rate constants are 30.9 s^−1, 7.5 s^−1, and 0.035 s^−1 for the CoA, pantetheine, N-acetylcysteamine compounds, respectively at 2° C. Limiting rates of 33 s^−1 and 55 s^−1 are obtained for CoA and pantetheine thioesters, respectively.
Dehydrogenase and R-(−)3,4-decadienoyl-CoA are mixed in the stopped-flow spectrophotometer at 2° C. to give final concentrations of 11 μM and 60 μM. The absorbance changes at 446 and 800 nm are shown in the inset of FIG. 2. As is observed with a number of diverse thioester substrates, such as butyryl-, octanoyl- and dihydrocinnamoyl-CoA, bleaching of the flavin at 446 nm is biphasic.
The absorbance changes were recorded in a 2 cm path-length cell after mixing dehydrogenase and R-(−)-thioester in the stopped flow spectrophotometer to give final concentrations of 5.5 and 30 μM respectively in 50 mM phosphate buffer, pH 7.6 at 2° C. […] Absorbance traces at a range of wavelengths were used to construct the spectrum of the intermediate species maximal at about 20 msec.

[5] = Solubility observation during rate measurements; type: physicochemical
Procedure: as §2

[6] = molecular target: T3, medium chain dehydrogenase; settings: absence of displacing ligand; cited from earlier work

- inhibition of the dehydrogenase [1]: potent inhibitor
Molecule: CCCC=C=CCC(=O)SCCNC(=O)CCNC(=O)[C@H](O)C(C)(C)COP(=O)(O)OP(=O)(O)OC[C@H]1O[C@@H](n2cnc3c(N)ncnc32)[C@H](O)[C@@H]1OP(=O)(O)O [(R)-3,4-octadienoyl-CoA]

- rate constant of enzyme adduct decomposition ([2]; 25° C.): 0.27 h⁻¹
Molecule: CCCCCCCCCCC=C=CCC(=O)SCCNC(=O)CCNC(=O)[C@H](O)C(C)(C)COP(=O)(O)OP(=O)(O)OC[C@H]1O[C@@H](n2cnc3c(N)ncnc32)[C@H](O)[C@@H]1OP(=O)(O)O (racemic) [3,4-pentadecanedienoyl-CoA]

- rate constant of enzyme adduct decomposition ([2]; 25° C.): 0.08 h⁻¹
Molecule: CCCC=C=CCC(=O)SCCNC(=O)CCNC(=O)[C@H](O)C(C)(C)COP(=O)(O)OP(=O)(O)OC[C@H]1O[C@@H](n2cnc3c(N)ncnc32)[C@H](O)[C@@H]1OP(=O)(O)O (racemic) [3,4-octadienoyl-CoA]

- inhibition of the dehydrogenase [1]: very little, if any, inhibition
Molecule: CCCC=C=CCC(=O)SCCNC(=O)CCNC(=O)[C@H](O)C(C)(C)COP(=O)(O)OP(=O)(O)OC[C@H]1O[C@@H](n2cnc3c(N)ncnc32)[C@H](O)[C@@H]1OP(=O)(O)O [(S)-3,4-octadienoyl-CoA]

- rate constant of enzyme adduct decomposition ([2]; 25° C.): 0.12 h⁻¹
- IC50 ([3]; within 1 minute, read-out: concentration that decreased the rate to 50% of control): 4.4 nM
Molecule: decadienoyl-CoA

- enzyme adduct stability relative to the corresponding full length CoA-thioester [2]: greater than 100 times
- rate constant of bleaching of the flavin chromophore at 446 nm [4]: 0.035 s⁻¹
- long wavelength band [4]: no long-wavelength band was observed
- solubility [5]: low solubility
Molecule: CCCCCC=C=CCC(=O)SCCNC(C)=O [R-(−)-3,4-decadienoyl-N-acetylcysteamine]
- regain of flavin absorbance (adduct stability in words) ([2]; 0.8 equivalents, 25° C.): no appreciable regain of the flavin absorbance after two days

- limiting rate of flavin bleaching [4]: 33 s⁻¹
- rate constant of bleaching of the flavin chromophore at 446 nm [4]: 30.9 s⁻¹
- stoichiometry of bleaching at 446 nm ([1]; 9.6 μM enzyme, pH 7.6, 25° C., FIG. 1B inset): 0.95 equivalents
Molecule: CCCCCC=C=CCC(=O)SCCNC(=O)CCNC(=O)[C@H](O)C(C)(C)COP(=O)(O)OP(=O)(O)OC[C@H]1O[C@@H](n2cnc3c(N)ncnc32)[C@H](O)[C@@H]1OP(=O)(O)O [R-(−)-3,4-decadienoyl-CoA]

- rate constant of enzyme adduct decomposition ([2]; 25° C.): 0.18 h⁻¹
Molecule: CCCCCCCC=C=CCC(=O)SCCNC(=O)CCNC(=O)[C@H](O)C(C)(C)COP(=O)(O)OP(=O)(O)OC[C@H]1O[C@@H](n2cnc3c(N)ncnc32)[C@H](O)[C@@H]1OP(=O)(O)O (racemic) [3,4-dodecadienoyl-CoA]

- rate constant of enzyme adduct decomposition ([2]; 25° C.): 1.9 h⁻¹
Molecule: CCC=C=CCC(=O)SCCNC(=O)CCNC(=O)[C@H](O)C(C)(C)COP(=O)(O)OP(=O)(O)OC[C@H]1O[C@@H](n2cnc3c(N)ncnc32)[C@H](O)[C@@H]1OP(=O)(O)O (racemic) [3,4-heptadienoyl-CoA]

- rate constant of enzyme adduct decomposition ([2]; 25° C.): 8.7 h⁻¹
Molecule: CC=C=CCC(=O)SCCNC(=O)CCNC(=O)[C@H](O)C(C)(C)COP(=O)(O)OP(=O)(O)OC[C@H]1O[C@@H](n2cnc3c(N)ncnc32)[C@H](O)[C@@H]1OP(=O)(O)O (racemic) [3,4-hexadienoyl-CoA]

- rate constant of enzyme adduct decomposition ([2]; 25° C.): 1.6 h⁻¹
Molecule: C=C=CCC(=O)SCCNC(=O)CCNC(=O)[C@H](O)C(C)(C)COP(=O)(O)OP(=O)(O)OC[C@H]1O[C@@H](n2cnc3c(N)ncnc32)[C@H](O)[C@@H]1OP(=O)(O)O [3,4-pentadienoyl-CoA, reference compound]
- half-life of reduced flavin adduct [6]: about 75 min

Molecule: CCCCCC=C=CCC(=O)SCCNC(=O)CCNC(=O)[C@H](O)C(C)(C)CO [R-(−)-3,4-decadienoyl-pantetheine]
- enzyme adduct stability relative to the corresponding full length CoA-thioester [2]: ~9 times
- enzyme adduct stability relative to the corresponding full length CoA-thioester ([2]; listed as (R)-3,4-decadienoyl-pantetheine): 10 times
- limiting rate of flavin bleaching [4]: 55 s⁻¹
- rate constant of bleaching of the flavin chromophore at 446 nm [4]: 7.5 s⁻¹
- long wavelength band [4]: one quarter as intense

- IC50 ([3]; read-out: concentration required to decrease the rate to 50% of control): 500 nM
Molecule: 3,4-decadienoyl pantetheine [3,4-decadienoyl-pantetheine]

- inhibition of the dehydrogenase [1]: relatively weak inhibitor
- flavin adduct formation ([1]; spectral titration): does not form a detectable flavin adduct
Molecule: CCCCCC=C=CCC(=O)SCCNC(=O)CCNC(=O)[C@H](O)C(C)(C)COP(=O)(O)OP(=O)(O)OC[C@H]1O[C@@H](n2cnc3c(N)ncnc32)[C@H](O)[C@@H]1OP(=O)(O)O [S-(+)-3,4-decadienoyl-CoA]
